Source: ChEMBL document CHEMBL1201862, “PubChem BioAssay data set” (2004)
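These data come from cells grown in 96-well plates and exposed to compound for 48 hours at five concentrations. The concentration for 50% growth inhibition is given as GI50.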 Calls of active or inactive are those of the source. Rule as the data show it: active = GI50 up to about 1.1 µM and inactive = higher.

Experiments:
Assay in all cases: DTP human tumour cell line panel, 48 h
[1] = tested on: U-251
[2] = tested on: A549
[3] = tested on: HCC 2998
[4] = tested on: UO-31
[5] = tested on: SF-295
[6] = tested on: HCT-15
[7] = tested on: ACHN
[8] = tested on: CCRF-CEM
[9] = tested on: COLO 205
[10] = tested on: UACC-62
[11] = tested on: NCI-H460
[12] = tested on: HT-29
[13] = tested on: HOP-92
[14] = tested on: RPMI-8226
[15] = tested on: HCT-116
[16] = tested on: SNB-19
[17] = tested on: NCI-H226
[18] = tested on: SK-OV-3
[19] = tested on: HL-60
[20] = tested on: SK-MEL-2

| Structure (SMILES) | GI50 [1] | GI50 [2] | GI50 [3] | GI50 [4] | GI50 [5] | GI50 [6] [µM] | GI50 [7] | GI50 [8] | GI50 [9] | GI50 [10] | GI50 [11] | GI50 [12] | GI50 [13] | GI50 [14] | GI50 [15] | GI50 [16] | GI50 [17] | GI50 [18] | GI50 [19] | GI50 [20] |
| --- | --- | --- | --- | --- | --- | --- | --- | --- | --- | --- | --- | --- | --- | --- | --- | --- | --- | --- | --- | --- |
| C[NH+]1[C@@H](Cc2ccccc2)C(=O)O[B-]1(F)c1ccccc1 (stereo not given in full) | > 100 µM (inactive) | > 100 µM (inactive) | > 100 µM (inactive) | > 100 µM (inactive) | > 100 µM (inactive) | > 100 | > 100 µM (inactive) | > 100 µM (inactive) | > 100 µM (inactive) | > 100 µM (inactive) | > 100 µM (inactive) | > 100 µM (inactive) | > 100 µM (inactive) | > 100 µM (inactive) | > 100 µM (inactive) | > 100 µM (inactive) | > 100 µM (inactive) | > 100 µM (inactive) | > 100 µM (inactive) |  |
| O=C(O)c1c(CC(Cc2ccc3c(c2)CCC3)C(=O)O)ccc2c1CCC2 (stereo not given) | > 100 µM (inactive) | > 100 µM (inactive) | > 100 µM (inactive) | > 100 µM (inactive) | > 100 µM (inactive) | > 100 | > 100 µM (inactive) | > 100 µM (inactive) | > 100 µM (inactive) |  | > 100 µM (inactive) | > 100 µM (inactive) | > 100 µM (inactive) | > 100 µM (inactive) | > 100 µM (inactive) | > 100 µM (inactive) | > 100 µM (inactive) |  | > 100 µM (inactive) | > 100 µM (inactive) |
| CCN(CC)CCCNc1n[n+]([O-])c2ccccc2[n+]1[O-] | 18.5 µM (inactive) | 12.6 µM (inactive) | 3.46 µM (inactive) | 28.6 µM (inactive) | 15 µM (inactive) | 2.5 | 6.41 µM (inactive) | 14.2 µM (inactive) | 11.2 µM (inactive) | 8.43 µM (inactive) | 3.99 µM (inactive) | 11.1 µM (inactive) | 27.1 µM (inactive) | 4.21 µM (inactive) | 11 µM (inactive) | 25.9 µM (inactive) | 20.5 µM (inactive) |  | 3.57 µM (inactive) | 4.74 µM (inactive) |
| COC(=O)C12CC(c3ccccc31)C1C(=O)OC(=O)C12 (stereo not given) | > 100 µM (inactive) | > 100 µM (inactive) | > 100 µM (inactive) | > 100 µM (inactive) | > 100 µM (inactive) | > 100 | > 100 µM (inactive) | > 100 µM (inactive) | > 100 µM (inactive) | > 100 µM (inactive) | > 100 µM (inactive) | > 100 µM (inactive) | > 100 µM (inactive) | > 100 µM (inactive) | > 100 µM (inactive) | > 100 µM (inactive) |  |  | > 100 µM (inactive) | > 100 µM (inactive) |
| COc1ccc(C(SCCO)(c2ccc(OC)cc2)c2ccc(OC)cc2)cc1 | 10.6 µM (inactive) | 17.7 µM (inactive) | 14.4 µM (inactive) | 13 µM (inactive) | 12.4 µM (inactive) | 11.4 | 17.7 µM (inactive) | 7.23 µM (inactive) | 11.2 µM (inactive) | 14 µM (inactive) | 15 µM (inactive) | 17 µM (inactive) | 10.1 µM (inactive) |  | 14.3 µM (inactive) | 26.9 µM (inactive) | 13.9 µM (inactive) | 29.1 µM (inactive) | 21 µM (inactive) | 14.1 µM (inactive) |
| CC1CN=C(N(C)C(=O)Nc2ccc(Cl)cc2)S1 (stereo not given) | 13.3 µM (inactive) | 16.7 µM (inactive) | 4.29 µM (inactive) | 10.1 µM (inactive) | 5.14 µM (inactive) | 0.841 | 1.3 µM (inactive) | > 10 µM (inactive) | 13.4 µM (inactive) |  | 3.77 µM (inactive) | 31.3 µM (inactive) | 29.9 µM (inactive) | > 10 µM (inactive) | 4.89 µM (inactive) | 49 µM (inactive) |  | 46 µM (inactive) | 15.7 µM (inactive) | 15.4 µM (inactive) |
| Cc1cc(C)n(CCNCCn2nc(C)cc2C)n1 | > 100 µM (inactive) | > 100 µM (inactive) | > 100 µM (inactive) | > 100 µM (inactive) | > 100 µM (inactive) |  | > 100 µM (inactive) | > 100 µM (inactive) | > 100 µM (inactive) | > 100 µM (inactive) | > 100 µM (inactive) |  | > 100 µM (inactive) | > 100 µM (inactive) | > 100 µM (inactive) | > 100 µM (inactive) |  | > 100 µM (inactive) | > 100 µM (inactive) |  |
| COc1cc(OC)c(/C=N/N=C(\N)NO)c(OC)c1 | > 100 µM (inactive) | 60.8 µM (inactive) | > 100 µM (inactive) | 29 µM (inactive) | 33 µM (inactive) | 83.9 | 15.6 µM (inactive) | > 100 µM (inactive) | > 100 µM (inactive) | 25.6 µM (inactive) | 91.4 µM (inactive) | > 100 µM (inactive) | > 100 µM (inactive) | > 100 µM (inactive) | > 100 µM (inactive) | > 100 µM (inactive) | > 100 µM (inactive) | > 100 µM (inactive) |  | > 100 µM (inactive) |
| COc1c2occc2c(N)c2ccc(=O)oc12 | > 100 µM (inactive) | > 100 µM (inactive) | > 100 µM (inactive) | > 100 µM (inactive) | > 100 µM (inactive) | > 100 | > 100 µM (inactive) | 93.5 µM (inactive) | > 100 µM (inactive) | 41.6 µM (inactive) | > 100 µM (inactive) | > 100 µM (inactive) | > 100 µM (inactive) | > 100 µM (inactive) | > 100 µM (inactive) | > 100 µM (inactive) | 29.5 µM (inactive) |  | 49.2 µM (inactive) | > 100 µM (inactive) |
| O=C(CSSCC(=O)Nc1ccc(Br)cc1)Nc1ccc(Br)cc1 | 14.4 µM (inactive) | 16.8 µM (inactive) | 22.1 µM (inactive) | 17.7 µM (inactive) | 14.7 µM (inactive) | 19.6 | 15.8 µM (inactive) |  | 28.5 µM (inactive) | 15.9 µM (inactive) | 16.9 µM (inactive) | 20.9 µM (inactive) | 19 µM (inactive) | 21.6 µM (inactive) | 14.4 µM (inactive) | 15.3 µM (inactive) | 16.9 µM (inactive) | 25.4 µM (inactive) | 16.9 µM (inactive) |  |
| Cn1c(=O)n2c(-c3ccccc3)c(-c3ccccc3)n2c1=O | > 100 µM (inactive) | > 100 µM (inactive) | > 100 µM (inactive) | 82 µM (inactive) | > 100 µM (inactive) | > 100 | > 100 µM (inactive) | > 100 µM (inactive) | > 100 µM (inactive) | > 100 µM (inactive) | > 100 µM (inactive) | > 100 µM (inactive) | > 100 µM (inactive) |  | > 100 µM (inactive) | > 100 µM (inactive) | > 100 µM (inactive) | > 100 µM (inactive) | 46.9 µM (inactive) | > 100 µM (inactive) |
| C=C(C(=C)P(=S)(c1ccccc1)c1ccccc1)P(=S)(c1ccccc1)c1ccccc1 | > 100 µM (inactive) | > 100 µM (inactive) | > 100 µM (inactive) |  | > 100 µM (inactive) | > 100 | > 100 µM (inactive) | > 100 µM (inactive) | > 100 µM (inactive) | > 100 µM (inactive) | > 100 µM (inactive) | > 100 µM (inactive) | 2.52 µM (inactive) | 8.75 µM (inactive) | > 100 µM (inactive) | > 100 µM (inactive) |  | > 100 µM (inactive) | 7.33 µM (inactive) | > 100 µM (inactive) |
| COc1cc(Nc2cc(Cl)cc(Cl)c2)nc(N)n1 | 15.2 µM (inactive) | 19.9 µM (inactive) | 16.6 µM (inactive) | 16.9 µM (inactive) | 18.6 µM (inactive) | 17.1 | 18.9 µM (inactive) | 17.6 µM (inactive) | 23.1 µM (inactive) | 17.1 µM (inactive) | 16.6 µM (inactive) | 17.8 µM (inactive) | 16.4 µM (inactive) | 19.9 µM (inactive) | 16.9 µM (inactive) | 22.9 µM (inactive) | 19.4 µM (inactive) | 27.5 µM (inactive) |  | 14.3 µM (inactive) |
| O=c1[nH]cc(COCC(F)(F)C(F)(F)C(F)(F)C(F)F)c(=O)[nH]1 | > 100 µM (inactive) | > 100 µM (inactive) | > 100 µM (inactive) | > 100 µM (inactive) | > 100 µM (inactive) | > 100 | > 100 µM (inactive) | > 100 µM (inactive) | > 100 µM (inactive) | > 100 µM (inactive) |  | > 100 µM (inactive) | > 100 µM (inactive) | > 100 µM (inactive) | > 100 µM (inactive) | > 100 µM (inactive) |  | > 100 µM (inactive) | > 100 µM (inactive) | > 100 µM (inactive) |
| O=C(CNc1cccc(Cl)c1)Nn1c(-c2ccccc2)nc2ccccc2c1=O | 1.74 µM (inactive) | 19.7 µM (inactive) | 10.4 µM (inactive) | 17.2 µM (inactive) | 14.1 µM (inactive) |  | 13.6 µM (inactive) | 1.58 µM (inactive) | 3.83 µM (inactive) | 1.69 µM (inactive) | 10.5 µM (inactive) | 5.9 µM (inactive) | 2.31 µM (inactive) | 10 µM (inactive) | 1.77 µM (inactive) | 15.7 µM (inactive) | 13.3 µM (inactive) | 10.8 µM (inactive) | 2.95 µM (inactive) |  |
